Results on one compound are retold here after patent publication US20160138077A1, “MONITORING AND ASSESSING DEACETYLASE ENZYME ACTIVITY” (THE GENERAL HOSPITAL CORPORATION, priority 2013, published 2016).

In experiment [1] the target is T1, HDAC6 (Homo sapiens, UniProt Q9UBN7).
T1 sequence (Q9UBN7 1-1215): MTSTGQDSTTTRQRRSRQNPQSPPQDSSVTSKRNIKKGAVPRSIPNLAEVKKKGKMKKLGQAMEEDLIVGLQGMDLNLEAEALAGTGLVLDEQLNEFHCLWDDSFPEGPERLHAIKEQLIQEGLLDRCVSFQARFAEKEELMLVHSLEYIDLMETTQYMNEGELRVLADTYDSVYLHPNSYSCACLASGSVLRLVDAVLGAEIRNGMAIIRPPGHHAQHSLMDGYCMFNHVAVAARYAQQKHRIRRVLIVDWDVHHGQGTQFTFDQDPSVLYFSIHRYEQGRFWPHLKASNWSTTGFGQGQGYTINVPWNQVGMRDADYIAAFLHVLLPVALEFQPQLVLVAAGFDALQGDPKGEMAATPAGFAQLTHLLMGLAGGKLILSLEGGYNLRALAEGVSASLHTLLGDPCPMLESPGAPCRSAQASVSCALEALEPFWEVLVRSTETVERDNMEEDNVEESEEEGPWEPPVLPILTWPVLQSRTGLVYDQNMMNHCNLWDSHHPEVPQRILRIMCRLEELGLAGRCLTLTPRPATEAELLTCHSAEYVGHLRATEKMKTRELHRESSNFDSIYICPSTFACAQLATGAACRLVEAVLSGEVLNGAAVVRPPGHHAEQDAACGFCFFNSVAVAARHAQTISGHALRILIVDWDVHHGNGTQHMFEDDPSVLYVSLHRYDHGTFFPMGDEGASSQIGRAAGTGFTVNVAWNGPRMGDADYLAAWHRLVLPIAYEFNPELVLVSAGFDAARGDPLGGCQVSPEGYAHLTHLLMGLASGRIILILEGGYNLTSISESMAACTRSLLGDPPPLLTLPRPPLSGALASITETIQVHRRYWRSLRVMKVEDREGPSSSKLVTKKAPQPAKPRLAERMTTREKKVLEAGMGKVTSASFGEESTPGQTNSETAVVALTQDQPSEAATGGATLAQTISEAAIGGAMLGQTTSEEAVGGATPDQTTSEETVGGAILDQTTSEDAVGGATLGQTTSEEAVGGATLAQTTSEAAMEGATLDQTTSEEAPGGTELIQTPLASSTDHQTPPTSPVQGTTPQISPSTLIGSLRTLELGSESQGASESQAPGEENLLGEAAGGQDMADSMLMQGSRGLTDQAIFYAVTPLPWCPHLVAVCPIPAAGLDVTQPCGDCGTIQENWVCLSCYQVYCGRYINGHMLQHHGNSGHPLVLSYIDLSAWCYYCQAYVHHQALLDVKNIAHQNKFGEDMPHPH
Nature of the experiment: Caliper microfluidic endpoint IC50 assay. Format: biochemical. As to the method:
HP-1 and HP-2 IC50 values for HDAC1 were determined using the Trypsin-coupled assay as well as the Caliper endpoint assay. HP-1 and HP-2 IC50 values for HDAC2, HDAC3, HDAC6 and HDAC8 were determined with the Caliper endpoint assay.
The Caliper microfluidic assay was performed at the Broad Institute exactly as previously described.^5
IC50 measurements. HP-1 and HP-2 IC50 values for HDAC1 were determined using the Trypsin-coupled assay as well as the Caliper endpoint assay. HP-1 and HP-2 IC50 values for HDAC2, HDAC3, HDAC6 and HDAC8 were determined with the Caliper endpoint assay (full experimental details in Example 1).

The subject of experiment [2] is HeLa cells. Nature of the experiment: Determination of HDAC activity in HeLa cells by LC-MS. Particulars: live HeLa cells, 5 μM, over 24 h. Format: cell-based. How it is done:
HeLa cell culture and treatment with HP-1 and HP-2. HeLa cells (ATCC) were grown as a monolayer in Eagles Minimum Essential Medium (EMEM, GIBCO, BRL, Gaithersburg, Md.) with 10% Fetal Bovine Serum (FBS, GIBCO, BRL, Gaithersburg, Md.) and 1% penicillin/streptomycin ([…]). All cell culture dishes were maintained in a humidified atmosphere with 5% CO2 at 37° C.
Determination of HDAC activity in HeLa cells by LC-MS. HDAC activity in HeLa cells was analyzed by performing an LCMS assay. Solutions of HP-1 and HP-2 (200 mM each) were prepared in DMSO and diluted in HDAC buffer to a final concentration of 100 μM. […] Cells were scraped off of the flask, lysed in milipore water (90 μL) using a mechanical homogenizer, centrifuged (at 14,000×g for 2 min) and 20 μL aliquot of supernatant from each sample was analyzed by LCMS. […] The peak area for each detected compound was measured to determine the % conversion. For HP-1, the corresponding (M+H)^+ ion was detected. […] The peak area for each detected compound was measured to determine the % conversion of each probe. […]
Determination of HDAC activity in HeLa cells by LC-MS. […] Cells were scraped off of the flask, lysed in Millipore water using a mechanical homogenizer, and supernatant of the lysed samples were analyzed by LC-MS. […] The peak area for each detected compound was measured to determine the % conversion versus time (full experimental details in Example 1).

Broadly, the IC50 is the concentration needed to halve the response being measured. A higher IC50 goes with a need for much substance. `CC(=O)NC=CCCCCNC(=O)CCCCCNc1ccc([N+](=O)[O-])c2nonc12` [HP-1] came in with an IC50 in experiment [1] (HDAC6, Caliper endpoint assay) of 12 µM. Moreover, the “binding to HDAC6 (in words)” value in experiment [1] (competitive inhibition with a peptide substrate) is “bind”. In experiment [2] (absence of SAHA, LCMS of supernatants and lysates), this compound displayed an HP-1 cleaved of 80%. In addition, the “Cleavage of HP-1” value in experiment [2] (addition of SAHA (10 μM)) came to 20%.
